Measurements reported in patent US20150011541A1, “PIPECOLATE-SULFONAMIDES FOR TREATMENT OF PSYCHIATRIC DISORDERS” (Max-Planck-Gesellschaft zur Förderung der Wissenschaften …, priority 2011, published 2015).
Read-outs that look alike come from different tables or passages of the source.

Assays:
[1] = target: T1, human FKBP51FK1 (Homo sapiens, UniProt Q13451); assay: Fluorescence polarization assay, binding to FK1 domain of FKBP51; conditions: for inhibition at 5 µM: read-out: FKBP 51 FK1 % inhibition; for IC50: binding affinity, fluorescence polarization assay
T1 sequence (Q13451 42-130 limits assumed): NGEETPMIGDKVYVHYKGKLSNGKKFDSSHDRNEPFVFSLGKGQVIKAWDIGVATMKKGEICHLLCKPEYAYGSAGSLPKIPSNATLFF

[2] = target: T2, human FKBP52FK1 (Homo sapiens, UniProt Q02790); assay: Fluorescence polarization assay, binding to FK1 domain of FKBP52; conditions: for inhibition at 5 µM: read-out: FKBP52 FK1 % inhibition; for IC50: binding affinity, fluorescence polarization assay
T2 sequence (Q02790 50-138 limits assumed): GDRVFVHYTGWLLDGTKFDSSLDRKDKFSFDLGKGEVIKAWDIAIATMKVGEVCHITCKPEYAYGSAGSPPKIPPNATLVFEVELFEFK

[3] = at a concentration of 5 μM, library testing

inhibition at 5 µM [1, 3] [%] | inhibition at 5 µM [2, 3] [%] | Structure (SMILES) | also measured
1.4 | 9.5 | COc1ccc(CC[C@@H](OC(=O)[C@@H]2CCCCN2S(=O)(=O)c2ccccc2Cl)c2cccc(OCC(=O)O)c2)cc1OC [Compound 45, 2-(3-((R)-1-((S)-1-(2-chlorophenylsulfonyl)piperidine-2-carbonyloxy)-3-(3,4-dimethoxyphenyl)propyl)phenoxy)acetic acid] | –
3.2 | 9.5 | COc1ccc(CC[C@@H](OC(=O)[C@@H]2CCCCN2S(=O)(=O)c2c(Cl)cccc2Cl)c2cccc(OCC(=O)O)c2)cc1OC [Compound 46, 2-(3-((R)-1-((S)-1-(2,6-dichlorophenylsulfonyl)piperidine-2-carbonyloxy)-3-(3,4-dimethoxyphenyl)propyl)phenoxy)acetic acid] | –
4.9 | 3.8 | COc1ccc(CC[C@@H](OC(=O)[C@@H]2CCCCN2S(=O)(=O)c2cccc(-c3nnc(C)o3)c2)c2cccc(OCC(=O)O)c2)cc1OC [Compound 47, 2-(3-((R)-3-(3,4-dimethoxyphenyl)-1-((S)-1-(3-(5-methyl-1,3,4-oxadiazol-2-yl)phenylsulfonyl)piperidine-2-carbonyloxy)propyl)phenoxy)acetic acid] | –
-0.2 | 11.4 | COc1ccc(CC[C@@H](OC(=O)[C@@H]2CCCCN2S(=O)(=O)c2ccc(C(F)(F)F)c(Cl)c2)c2cccc(OCC(=O)O)c2)cc1OC [Compound 48, 2-(3-((R)-1-((S)-1-(3-chloro-4-(trifluoromethyl)phenylsulfonyl)piperidine-2-carbonyloxy)-3-(3,4-dimethoxyphenyl)propyl)phenoxy)acetic acid] | –
-0.8 | 6.6 | COc1ccc(CC[C@@H](OC(=O)[C@@H]2CCCCN2S(=O)(=O)c2cccc3c2ccn3C)c2cccc(OCC(=O)O)c2)cc1OC [Compound 49, 2-(3-((R)-3-(3,4-dimethoxyphenyl)-1-((S)-1-(1-methyl-1H-indol-4-ylsulfonyl)piperidine-2-carbonyloxy)propyl)phenoxy)acetic acid] | –
10 | 10.4 | COc1ccc(CC[C@@H](OC(=O)[C@@H]2CCCCN2S(=O)(=O)c2ccc3c(ccn3C)c2)c2cccc(OCC(=O)O)c2)cc1OC [Compound 50, 2-(3-((R)-3-(3,4-dimethoxyphenyl)-1-((S)-1-(1-methyl-1H-indol-5-ylsulfonyl)piperidine-2-carbonyloxy)propyl)phenoxy)acetic acid] | –
9.5 | 6.6 | COc1ccc(CC[C@@H](OC(=O)[C@@H]2CCCCN2S(=O)(=O)c2ccc3c(c2)N(C)CCO3)c2cccc(OCC(=O)O)c2)cc1OC [Compound 51, 2-(3-((R)-3-(3,4-dimethoxyphenyl)-1-((S)-1-(4-methyl-3,4-dihydro-2H-benzo[b][1,4]oxazin-6-ylsulfonyl)piperidine-2-carbonyloxy)propyl)phenoxy)acetic acid] | –
– | 5.7 | COc1ccc(CC[C@@H](OC(=O)[C@@H]2CCCCN2S(=O)(=O)c2ccoc2)c2cccc(OCC(=O)O)c2)cc1OC [Compound 53, 2-(3-((R)-3-(3,4-dimethoxyphenyl)-1-((S)-1-(furan-3-ylsulfonyl)piperidine-2-carbonyloxy)propyl)phenoxy)acetic acid] | inhibition at 5 µM [1]: 2%
5.5 | 6.6 | COc1ccc(CC[C@@H](OC(=O)[C@@H]2CCCCN2S(=O)(=O)c2cc3ccccc3o2)c2cccc(OCC(=O)O)c2)cc1OC [Compound 54, 2-(3-((R)-1-((S)-1-(benzofuran-2-ylsulfonyl)piperidine-2-carbonyloxy)-3-(3,4-dimethoxyphenyl)propyl)phenoxy)acetic acid] | –
3.2 | 8.5 | COc1ccc(CC[C@@H](OC(=O)[C@@H]2CCCCN2S(=O)(=O)c2cccs2)c2cccc(OCC(=O)O)c2)cc1OC [Compound 55, 2-(3-((R)-3-(3,4-dimethoxyphenyl)-1-((S)-1-(thiophen-2-ylsulfonyl)piperidine-2-carbonyloxy)propyl)phenoxy)acetic acid] | –
3.2 | 9.5 | COc1ccc(CC[C@@H](OC(=O)[C@@H]2CCCCN2S(=O)(=O)c2ccc(-c3ccccc3)s2)c2cccc(OCC(=O)O)c2)cc1OC [Compound 56, 2-(3-((R)-3-(3,4-dimethoxyphenyl)-1-((S)-1-(5-phenylthiophen-2-ylsulfonyl)piperidine-2-carbonyloxy)propyl)phenoxy)acetic acid] | –
3.2 | 4.7 | COc1ccc(CC[C@@H](OC(=O)[C@@H]2CCCCN2S(=O)(=O)c2csc3ccccc23)c2cccc(OCC(=O)O)c2)cc1OC [Compound 57, 2-(3-((R)-1-((S)-1-(benzo[b]thiophen-3-ylsulfonyl)piperidine-2-carbonyloxy)-3-(3,4-dimethoxyphenyl)propyl)phenoxy)acetic acid] | –
5.5 | 1.9 | COc1ccc(CC[C@@H](OC(=O)[C@@H]2CCCCN2S(=O)(=O)c2c(C)nn(C)c2C)c2cccc(OCC(=O)O)c2)cc1OC [Compound 61, 2-(3-((R)-3-(3,4-dimethoxyphenyl)-1-((S)-1-(1,3,5-trimethyl-1H-pyrazol-4-ylsulfonyl)piperidine-2-carbonyloxy)propyl)phenoxy)acetic acid] | –
0.9 | 4.7 | COc1ccc(CC[C@@H](OC(=O)[C@@H]2CCCCN2S(=O)(=O)c2c(C)nn(-c3ccccc3)c2C)c2cccc(OCC(=O)O)c2)cc1OC [Compound 62, 2-(3-((R)-3-(3,4-dimethoxyphenyl)-1-((S)-1-(3,5-dimethyl-1-phenyl-1H-pyrazol-4-ylsulfonyl)piperidine-2-carbonyloxy)propyl)phenoxy)acetic acid] | –
– | – | COc1ccc(CC[C@@H](OC(=O)[C@@H]2CCCCN2S(=O)(=O)c2ccc(C)cc2)c2cccc(OCC(=O)O)c2)cc1OC [Compound 63, 2-(3-((R)-3-(3,4-dimethoxyphenyl)-1-((S)-1-tosylpiperidine-2-carbonyloxy)propyl)phenoxy)acetic acid] | inhibition at 5 µM [1]: 3.2%; inhibition at 5 µM [2]: 3.8%
– | – | CCOC(=O)C1CCCCN1S(=O)(=O)Cc1ccccc1 (centres unmarked) [Ref. 1, Ethyl 1-(benzylsulfonyl)piperidine-2-carboxylate, reference compound] | IC50 [1]: > 100 µM; IC50 [2]: > 100 µM
– | – | CCOC(=O)C1CCCCN1S(=O)(=O)c1cccc([N+](=O)[O-])c1 (centres unmarked) [Ref. 2, Ethyl 1-(3-nitrophenylsulfonyl)piperidine-2-carboxylate, reference compound] | IC50 [1]: > 100 µM; IC50 [2]: > 100 µM
– | – | COc1ccc(CCCOC(=O)C2CCCCN2S(=O)(=O)Cc2ccccc2)cc1OC (centres unmarked) [Ref. 3, 3-(3,4-dimethoxyphenyl)propyl 1-(benzylsulfonyl)piperidine-2-carboxylate, reference compound] | IC50 [1]: > 100 µM; IC50 [2]: > 100 µM
– | – | O=C(OCCCc1cccnc1)C1CCCCN1S(=O)(=O)c1cccc([N+](=O)[O-])c1 (centres unmarked) [Ref. 4, 3-(pyridin-3-yl)propyl 1-(3-nitrophenylsulfonyl)piperidine-2-carboxylate, reference compound] | IC50 [1]: > 100 µM; IC50 [2]: > 100 µM
